Reference: US20240327385A1, “SUBSTITUTED PIPERIDINE COMPOUNDS AS RENIN INHIBITORS” (priority 2023, published 2024)

Molecular target: human recombinant renin (Homo sapiens (Human), UniProt P00797)
Test: human renin activity inhibition (SensoLyte 520 Renin Assay Kit Fluorimetric)
Format: biochemical
Conditions: 30 min preincubation at 37° C., fluorescence at 530 nm after 15 min at 37° C., read-out: IC50 (nM), inhibitory effect on human renin activity
Description: The exemplary compounds of the disclosure were tested for their inhibitory effects on human renin activity, using a commercially available renin assay kit (SensoLyte® 520 Renin Assay Kit Fluorimetric), following the manufacture's manual.
Briefly, human recombinant renin (from the kit) was incubated with the compound of the disclosure or buffer for 30 min at 37° C. before substrate addition. Fluorescence intensity was measured at 530 nm after an incubation of 15 min at 37° C. Data was analyzed by Prism and fitted into a sigmodal curve for IC50 calculation.

Chain of human recombinant renin (P00797 67-406): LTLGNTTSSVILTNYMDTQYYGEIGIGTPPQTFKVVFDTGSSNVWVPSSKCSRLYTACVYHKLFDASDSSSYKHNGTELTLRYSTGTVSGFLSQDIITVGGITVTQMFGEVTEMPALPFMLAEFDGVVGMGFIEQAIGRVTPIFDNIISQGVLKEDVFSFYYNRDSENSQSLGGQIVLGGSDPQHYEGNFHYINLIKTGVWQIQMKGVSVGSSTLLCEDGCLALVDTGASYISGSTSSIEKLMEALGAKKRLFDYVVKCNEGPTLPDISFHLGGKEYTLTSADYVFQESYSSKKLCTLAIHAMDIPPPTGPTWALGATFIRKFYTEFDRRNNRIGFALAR

Row | IC50 [nM] | Structure (SMILES)
1 | < 10 | CO[C@H]1C[C@H](Nc2cc(C3CC3)cnc2C(=O)N(CC(C)C)[C@@H]2CNC[C@H](c3noc(C)n3)C2)C1 [Compound 28, (3S)—{N-(2-methylpropyl), N-{5-cyclopropyl-3-[3-(trans-methoxy)cyclobutyl]amino}pyridine-2-carbonyl}amino-(5R)-(5-methyl-1,2,4-oxadiazol-3-yl)-piperidine]
2 | 1.5 | CO[C@H]1C[C@@H](Nc2cc(C3CC3)cnc2C(=O)N(CC(C)C)C2CNCC(C(=O)N3CCOCC3)C2)C1 (stereo partly drawn) [Compound 19, (3S)—{N-(2-methylpropyl), N-{5-cyclopropyl-3-[3-(cis-methoxy)cyclobutyl]amino}pyridine-2-carbonyl}amino-(5R)-(morpholine-N-carbonyl)-piperidine]
3 | 1.2 | CO[C@H]1C[C@H](Nc2cc(C3CC3)cnc2C(=O)N(CC(C)C)C2CNCC(C(=O)N3CCOC[C@H]3C)C2)C1 (stereo partly drawn) [Compound 14, (3S)—{N-(2-methylpropyl), N-{5-cyclopropyl-3-[3-(trans-methoxy)cyclobutyl]amino}pyridine-2-carbonyl}amino-(5R)-[(3R)-methylmorpholine-N-carbonyl]-piperidine]
4 | 1.2 | CO[C@H]1C[C@H](Nc2cc(C3CC3)cnc2C(=O)N(CC(C)C)C2CNCC(C(=O)N3CCOCC3)C2)C1 (stereo partly drawn) [Compound 18, (3S)—{N-(2-methylpropyl), N-{5-cyclopropyl-3-[3-(trans-methoxy)cyclobutyl]amino}pyridine-2-carbonyl}amino-(5R)-(morpholine-N-carbonyl)-piperidine]
5 | 1.9 | CC(C)CN(C(=O)c1ncc(C2CC2)cc1NC1CCC1)C1CNCC(C(=O)N2CCOCC2)C1 [Compound 20, (3S)—[N-(2-methylpropyl), N-(5-cyclopropyl-3-cyclobutylamino)pyridine-2-carbonyl]amino-(5R)-(morpholine-N-carbonyl)-piperidine]
6 | < 10 | CO[C@H]1C[C@H](Nc2cc(C3CC3)cnc2C(=O)N(CC2CC2)[C@@H]2CNC[C@H](c3nnc(C)o3)C2)C1 [Compound 41]
7 | < 10 | CO[C@H]1C[C@H](Nc2cccnc2C(=O)N(CC(C)C)[C@@H]2CNCC(c3nnc(C4CC4)o3)C2)C1 (stereo partly drawn) [Compound 31, (3S)—{N-(2-methylpropyl), N-[3-(3-trans-methoxy)cyclobutyl]amino-pyridine-2-carbonyl}amino-(5R)-(5-cyclopropyl-1,3,4-oxadiazol-2-yl)-piperidine]
8 | 1 | CO[C@H]1C[C@H](Nc2cc(C3CC3)cnc2C(=O)N(CC(C)C)C2CNCC(C(=O)N3CCOC[C@@H]3C)C2)C1 (stereo partly drawn) [Compound 15, (3S)—{N-(2-methylpropyl), N-{5-cyclopropyl-3-[3-(trans-methoxy)cyclobutyl]amino}pyridine-2-carbonyl}amino-(5R)-[(3S)-methylmorpholine-N-carbonyl]-piperidine]
9 | 1.5 | CO[C@H]1C[C@H](Nc2nc(C(C)(C)C)ncc2C(=O)N(CC(C)C)C2CNCC(C(=O)N3CCOCC3)C2)C1 (stereo partly drawn) [Compound 17, (3S)—{N-(2-methylpropyl), N-{2-tert-butyl-3-[3-(trans-methoxy)cyclobutyl]amino}pyrimidine-5-carbonyl}amino-(5R)-(morpholine-N-carbonyl)-piperidine]
10 | < 20 | CO[C@H]1C[C@H](Nc2cc(C3CC3)cnc2C(=O)N(CC(C)C)[C@@H]2CNC[C@H](CO)C2)C1 [Compound 35, (3S)—{N-(2-methylpropyl), N-{5-cyclopropyl-3-[3-(trans-methoxy)cyclobutyl]amino}pyridine-2-carbonyl}amino-(5R)-hydroxymethyl-piperidine]
11 | 1.8 | CO[C@H]1C[C@H](Nc2cc(C3CC3)cnc2C(=O)N(CC(C)C)[C@@H]2CNC[C@H](C(=O)N3CC(F)C3)C2)C1 [Compound 10, (3S)—{N-(2-methylpropyl), N-{5-cyclopropyl-3-[3-(trans-methoxy)cyclobutyl]amino}pyridine-2-carbonyl}amino-(5R)-(3-fluoroazetidine-N-carbonyl)-piperidine]
12 | < 30 | CC(C)CN(C(=O)c1ncc(C2CC2)cc1NC1COC1)[C@@H]1CNC[C@H](c2ncon2)C1 [Compound 42, (3S)—{N-(2-methylpropyl), N-[5-cyclopropyl-3-(oxetan-3-yl)amino]pyridine-2-carbonyl}amino-(5R)-(1,2,4-oxadiazol-3-yl)-piperidine]
13 | < 250 | CO[C@H]1C[C@H](Nc2nc(C3CC3)ncc2C(=O)N(CC(C)C)[C@@H]2CNC[C@H](C(=O)N3CCOC[C@@H]3C)C2)C1 [Compound 46, (3S)—{N-(2-methylpropyl), N-{2-cyclopropyl-3-[3-(trans-methoxy)cyclobutyl]amino}pyrimidine-5-carbonyl}amino-(5R)-[(3S)-methylmorpholine-N-carbonyl]-piperidine]
14 | 1.3 | CO[C@H]1C[C@H](Nc2cc(C3CC3)cnc2C(=O)N(CC(C)C)C2CNC[C@H](c3nnc(C)o3)C2)C1 (stereo partly drawn) [Compound 22, (3S)—{N-(2-methylpropyl), N-{5-cyclopropyl-3-[3-(trans-methoxy)cyclobutyl]amino}pyridine-2-carbonyl}amino-(5R)-(5-methyl-1,3,4-oxadiazol-2-yl)-piperidine]
15 | < 250 | CC[C@H]1COCCN1C(=O)[C@H]1CNC[C@@H](N(CC(C)C)C(=O)c2ncc(C3CC3)cc2N[C@H]2C[C@H](OC)C2)C1 [Compound 27, (3S)—{N-(2-methylpropyl), N-{5-cyclopropyl-3-[3-(trans-methoxy)cyclobutyl]amino}pyridine-2-carbonyl}amino-(5R)-[(3S)-ethylmorpholine-N-carbonyl]-piperidine]
16 | 1.2 | CO[C@H]1C[C@H](Nc2cc(C3CC3)cnc2C(=O)N(CC(C)C)C2CNC[C@H](c3nnc(C4CC4)o3)C2)C1 (stereo partly drawn) [Compound 23, (3S)—{N-(2-methylpropyl), N-{5-cyclopropyl-3-[3-(trans-methoxy)cyclobutyl]amino}pyridine-2-carbonyl}amino-(5R)-(5-cyclopropyl-1,3,4-oxadiazol-2-yl)-piperidine]
17 | 1.6 | CO[C@H]1C[C@H](Nc2cc(C3CC3)cnc2C(=O)N(CC(C)C)C2CNCC(C(=O)N3CCC(F)(F)CC3)C2)C1 (stereo partly drawn) [Compound 12, (3S)—{N-(2-methylpropyl), N-{5-cyclopropyl-3-[3-(trans-methoxy)cyclobutyl]amino}pyridine-2-carbonyl}amino-(5R)-(4,4-difluoropiperidine-N-carbonyl)-piperidine]
18 | < 10 | [2H]C([2H])([2H])O[C@H]1C[C@H](Nc2cc(C3CC3)cnc2C(=O)N(CC(C)C)[C@@H]2CNC[C@H](c3nnco3)C2)C1 [Compound 45, (3S)—{N-(2-methylpropyl), N-{5-cyclopropyl-3-[3-(trans-methoxy-d3)cyclobutyl]amino}pyridine-2-carbonyl}amino-(5R)-(1,3,4-oxadiazol-2-yl)-piperidine]
19 | < 10 | CC(C)CN(C(=O)c1ncc(C2CC2)cc1NC1COC1)[C@@H]1CNCC(c2nnc(C3CC3)o2)C1 (stereo partly drawn) [Compound 32, (3S)—{N-(2-methylpropyl), N-[5-cyclopropyl-3-(oxetan-3-yl)amino]pyridine-2-carbonyl}amino-(5R)-(5-cyclopropyl-1,3,4-oxadiazol-2-yl)-piperidine]
20 | < 10 | CC(C)CN(C(=O)c1ncc(C2CC2)cc1NC1CC1)[C@@H]1CNC[C@H](C(=O)N2CCOCC2)C1 [Compound 25, (3S)—[N-(2-methylpropyl), N-(5-cyclopropyl-3-cyclopropylamino)pyridine-2-carbonyl]amino-(5R)-(morpholine-N-carbonyl)-piperidine]
21 | < 50 | Cc1noc(C2CNC[C@@H](N(CC(C)C)C(=O)c3ncc(C4CC4)cc3NC3COC3)C2)n1 (stereo in doubt) [Compound 38, (3S)—{N-(2-methylpropyl), N-[5-cyclopropyl-3-(oxetan-3-yl)amino]pyridine-2-carbonyl}amino-(5R)-(3-methyl-1,2,4-oxadiazol-5-yl)-piperidine]
22 | < 10 | CC(C)CN(C(=O)c1ncc(C2CC2)cc1NC1COC1)[C@@H]1CNC[C@H](C(=O)N2CCOCC2)C1 [Compound 30]
23 | 3.8 | CO[C@H]1C[C@H](Nc2cc(C3CC3)cnc2C(=O)N(CC(C)C)C2CNCC(C(=O)N3CCC(OC(F)(F)F)CC3)C2)C1 (stereo partly drawn) [Compound 13, (3S)—{N-(2-methylpropyl), N-{5-cyclopropyl-3-[3-(trans-methoxy)cyclobutyl]amino}pyridine-2-carbonyl}amino-(5R)-(4-trifluoromethoxypiperidine-N-carbonyl)-piperidine]
24 | < 10 | CO[C@H]1C[C@H](Nc2cc(C3CC3)cnc2C(=O)N(CC(C)C)[C@@H]2CNC[C@H](c3nnco3)C2)C1 [Compound 40, (3S)—{N-(2-methylpropyl), N-{5-cyclopropyl-3-[3-(trans-methoxy)cyclobutyl]amino}pyridine-2-carbonyl}amino-(5R)-(1,3,4-oxadiazol-2-yl)-piperidine]
25 | < 10 | CO[C@H]1C[C@H](Nc2cc(C3CC3)cnc2C(=O)N(CC2CC2)[C@@H]2CNCC(c3nnco3)C2)C1 (stereo in doubt) [Compound 44, (3S)—{N-cyclopropylmethyl, N-{5-cyclopropyl-3-[3-(trans-methoxy)cyclobutyl]amino}pyridine-2-carbonyl}amino-(5R)-(1,3,4-oxadiazol-2-yl)-piperidine]
